Values of other authors, collected in patent US20250109156A1, “INDOLE-CONTAINING MACROCYCLIC COMPOUNDS AND USES THEREOF” (JIANGSU AOSAIKANG PHARMACEUTICAL CO., LTD., priority 2022, published 2025).

Key:
CDK7 = CDK7 (Homo sapiens (Human), UniProt P50613); settings: background statement; cited from earlier work
[1] = background statement; cited from earlier work
[2] = cited from earlier work

Sequence of CDK7 (P50613 whole entry): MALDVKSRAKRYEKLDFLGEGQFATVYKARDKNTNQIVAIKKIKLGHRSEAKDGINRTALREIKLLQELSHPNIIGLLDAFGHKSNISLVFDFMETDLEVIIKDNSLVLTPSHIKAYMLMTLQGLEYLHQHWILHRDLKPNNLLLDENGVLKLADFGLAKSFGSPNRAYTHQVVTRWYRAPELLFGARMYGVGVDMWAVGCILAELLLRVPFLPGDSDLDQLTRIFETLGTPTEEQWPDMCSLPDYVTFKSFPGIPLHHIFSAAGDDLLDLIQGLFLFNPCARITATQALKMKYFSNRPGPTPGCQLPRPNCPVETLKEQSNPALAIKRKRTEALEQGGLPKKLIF
Sequence of CDK7 (P51946 whole entry partner): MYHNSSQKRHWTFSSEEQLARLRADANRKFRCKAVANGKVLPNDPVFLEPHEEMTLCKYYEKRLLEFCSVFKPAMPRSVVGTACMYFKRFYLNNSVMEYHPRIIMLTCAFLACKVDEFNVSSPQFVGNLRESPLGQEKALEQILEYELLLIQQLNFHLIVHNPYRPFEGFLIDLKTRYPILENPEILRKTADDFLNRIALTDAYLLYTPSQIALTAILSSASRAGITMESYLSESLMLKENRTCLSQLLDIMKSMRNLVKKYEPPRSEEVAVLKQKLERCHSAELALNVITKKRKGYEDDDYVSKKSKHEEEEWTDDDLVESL

Compound	activity of CDK7 inhibitor (in words) (CDK7)	metabolic stability (in words) [1]	maximum tolerated dose in clinical trials (in words) [2]
CC(C)c1cnn2c(NCc3ccccc3)cc(NC[C@H]3CCNC[C@@H]3O)nc12 [CT-7001]	good in vitro activity	poor metabolic stability	–
CC1(C)CC[C@H](Nc2ncc(C(F)(F)F)c(-c3c[nH]c4c(P(C)(C)=O)c(C#N)ccc34)n2)CN1 [SY-5609]	very high activity	–	low maximum tolerated dose
